These results are taken from patent publication US20130298921A1, “INHALER FOR SMOKING CESSATION” (Rock Creek Pharmaceuticals, Inc., priority 2011, published 2013).

Like-named read-outs stand apart in the source and are kept apart here.

In one series the target is T1, α4/β2 nAChR channel (Homo sapiens, UniProt P17787+P43681).
T1 construct: expressed in transfected cells
Nature of the series: Fluo-8 calcium FLIPR assay, cloned nAChR channels in mammalian cells. In kind it is cell-based.

In series [1] the test system is rodents trained to self-administer nicotine. In words: reward in rodents trained to self-administer nicotine. In kind it is in vivo.
In the next series the target is T2, α7 nAChR channel (Homo sapiens, UniProt P36544).
T2 construct: expressed in transfected cells
Nature of the series: Fluo-8 calcium FLIPR assay, cloned nAChR channels in mammalian cells. In kind it is cell-based. The conditions noted are these: for agonist character / maximum level of activation: agonist assay.

In another series the target is T3, α3/β4 nAChR channel (Homo sapiens, UniProt P30926+P32297).
T3 construct: expressed in transfected cells
The series is described as above. In kind it is cell-based.

The test system of series [2] is nicotine self-administration by rats. In words: nicotine self-administration by rats. In kind it is in vivo. The conditions noted are these: anatabine 1.8 and 3.2 mg/kg IP; peak reinforcing nicotine doses 0.003 and 0.01 mg/kg/inj; P<0.05-0.001; FIG. 6.
Series [3] has the same test system. The conditions noted are these: anatabine 1.8-5.6 mg/kg, Caine et al., 2013, cited from earlier work.
Series [4] deals with precipitated nicotine withdrawal. Nature of the series: precipitated nicotine withdrawal. In kind it is in vivo, rodents. The conditions noted are these: anatabine administration.
The test system of series [5] is nicotine self-administration in rhesus monkeys. Nature of the series: nicotine self-administration in nonhuman primate model (second-order schedule, nicotine- and food-maintained responding). In kind it is in vivo, rhesus monkeys (Macaca Mulatta). The conditions noted are these: for food-maintained responding (change with increasing anatabine doses): anatabine 0.18-3.2 mg/kg IM; for nicotine self-administration: single doses of anatabine 0.18-3.2 mg/kg IM, nicotine training dose 0.01 mg/kg/inj (base). The text has this: Food was available during three 1-hour sessions each day (7 AM, 3 PM and 7 PM).
Food pellets were limited to 25 per session or 100 per day.
Nicotine doses are expressed as the base.

Series [6] has as its system Hippocampus (rat hippocampal homogenates). In words: binding relative to nicotine in rat hippocampal homogenates. The conditions noted are these: reference set to 1.0. The text has this:
(§1) This example describes a study conducted on anatabine along with other common nicotinic alkaloids in rat frontal and hippocampal homogenates.

For series [7], the system named is Frontal cortex (rat frontal homogenates). Nature of the series: binding relative to nicotine in rat frontal homogenates. The conditions noted are these: reference set to 1.0.
Excerpt: as §1

Where [8] appears, read: antagonist and positive allosteric modulator modes.

T2 sequence (P36544 23-502): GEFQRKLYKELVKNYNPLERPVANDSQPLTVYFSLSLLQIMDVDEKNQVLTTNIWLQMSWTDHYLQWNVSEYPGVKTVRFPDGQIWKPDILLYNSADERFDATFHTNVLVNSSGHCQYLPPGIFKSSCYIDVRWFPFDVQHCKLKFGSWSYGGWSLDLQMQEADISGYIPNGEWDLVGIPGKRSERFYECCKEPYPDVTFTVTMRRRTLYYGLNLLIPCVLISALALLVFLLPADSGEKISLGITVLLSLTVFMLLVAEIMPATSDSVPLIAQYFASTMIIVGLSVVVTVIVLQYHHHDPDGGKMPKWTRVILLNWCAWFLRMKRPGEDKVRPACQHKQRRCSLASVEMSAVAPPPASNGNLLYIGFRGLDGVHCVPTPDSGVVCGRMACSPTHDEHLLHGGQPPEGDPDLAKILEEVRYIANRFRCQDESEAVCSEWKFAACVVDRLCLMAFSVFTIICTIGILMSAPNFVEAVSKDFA
T3 sequence (P32297 32-505): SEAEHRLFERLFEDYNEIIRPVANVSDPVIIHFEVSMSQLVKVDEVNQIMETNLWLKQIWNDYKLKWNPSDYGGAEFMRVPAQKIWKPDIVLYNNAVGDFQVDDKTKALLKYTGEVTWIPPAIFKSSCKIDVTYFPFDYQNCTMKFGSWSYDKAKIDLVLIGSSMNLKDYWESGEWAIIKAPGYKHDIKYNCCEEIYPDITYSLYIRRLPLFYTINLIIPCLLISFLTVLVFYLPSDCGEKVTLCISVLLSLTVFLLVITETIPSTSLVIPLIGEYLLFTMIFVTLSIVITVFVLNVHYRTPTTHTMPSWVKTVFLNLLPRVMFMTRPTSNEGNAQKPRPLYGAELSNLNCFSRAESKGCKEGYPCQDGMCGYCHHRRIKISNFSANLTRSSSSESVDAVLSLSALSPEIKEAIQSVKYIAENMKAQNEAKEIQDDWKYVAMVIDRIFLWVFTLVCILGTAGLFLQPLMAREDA
T3 sequence (P30926 22-498): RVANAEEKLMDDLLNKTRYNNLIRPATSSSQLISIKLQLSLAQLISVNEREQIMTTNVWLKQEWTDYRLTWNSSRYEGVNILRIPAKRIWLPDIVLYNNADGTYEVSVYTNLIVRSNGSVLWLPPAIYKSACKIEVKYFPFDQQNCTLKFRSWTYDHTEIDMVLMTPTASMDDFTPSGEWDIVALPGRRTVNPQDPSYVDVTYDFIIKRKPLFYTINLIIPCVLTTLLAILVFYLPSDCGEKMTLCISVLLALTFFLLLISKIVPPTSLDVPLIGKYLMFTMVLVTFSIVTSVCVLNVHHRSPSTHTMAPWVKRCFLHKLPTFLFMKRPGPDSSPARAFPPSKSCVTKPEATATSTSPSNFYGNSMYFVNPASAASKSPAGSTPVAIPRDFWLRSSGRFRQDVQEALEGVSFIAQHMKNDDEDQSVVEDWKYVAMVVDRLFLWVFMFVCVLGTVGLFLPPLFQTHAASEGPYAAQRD
T1 sequence (P43681 29-627 limits assumed): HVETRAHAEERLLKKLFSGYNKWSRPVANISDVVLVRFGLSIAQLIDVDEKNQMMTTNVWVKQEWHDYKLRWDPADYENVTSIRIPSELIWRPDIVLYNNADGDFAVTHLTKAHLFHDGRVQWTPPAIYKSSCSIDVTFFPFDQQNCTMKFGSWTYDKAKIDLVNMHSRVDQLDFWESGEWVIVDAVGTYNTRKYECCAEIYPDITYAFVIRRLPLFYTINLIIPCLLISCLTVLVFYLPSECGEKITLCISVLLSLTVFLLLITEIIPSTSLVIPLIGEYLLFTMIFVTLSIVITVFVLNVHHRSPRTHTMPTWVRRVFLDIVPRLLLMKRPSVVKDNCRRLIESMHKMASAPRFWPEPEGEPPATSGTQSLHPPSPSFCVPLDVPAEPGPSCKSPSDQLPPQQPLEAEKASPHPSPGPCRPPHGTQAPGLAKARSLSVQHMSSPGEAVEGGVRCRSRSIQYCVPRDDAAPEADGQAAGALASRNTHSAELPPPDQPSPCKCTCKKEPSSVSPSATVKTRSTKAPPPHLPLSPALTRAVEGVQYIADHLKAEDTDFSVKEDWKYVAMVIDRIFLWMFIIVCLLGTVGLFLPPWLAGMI
T1 sequence (P17787 26-502): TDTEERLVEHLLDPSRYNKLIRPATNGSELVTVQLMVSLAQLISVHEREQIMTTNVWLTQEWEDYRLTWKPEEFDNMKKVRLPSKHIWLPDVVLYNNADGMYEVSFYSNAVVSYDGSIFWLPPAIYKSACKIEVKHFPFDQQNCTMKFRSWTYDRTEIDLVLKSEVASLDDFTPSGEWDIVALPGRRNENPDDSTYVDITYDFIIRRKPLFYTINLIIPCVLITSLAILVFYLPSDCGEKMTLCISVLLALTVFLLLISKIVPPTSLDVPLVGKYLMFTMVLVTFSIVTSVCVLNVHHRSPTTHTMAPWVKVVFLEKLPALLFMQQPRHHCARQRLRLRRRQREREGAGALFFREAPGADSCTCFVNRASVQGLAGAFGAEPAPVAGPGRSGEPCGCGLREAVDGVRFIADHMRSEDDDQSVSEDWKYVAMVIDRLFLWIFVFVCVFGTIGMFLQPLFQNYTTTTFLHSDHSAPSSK

Broadly, the EC50 is the concentration at which the effect is half-maximal. For `C1=CCC(c2cccnc2)NC1` (racemic) [Anatabine, anatabine], the agonist character entry at α4/β2 nAChR channel (agonist assay) is “full agonist”; on α7 nAChR channel it was “full, potent agonists”; at α3/β4 nAChR channel (agonist assay), “partial agonist”. Further, the “antagonist or PAM effects” value on α4/β2 nAChR channel (setting [8]), on α7 nAChR channel (setting [8]) and on α3/β4 nAChR channel (setting [8]) was “no antagonist or PAM effects” in each case. Further, in [1], the rewarding effect entry is given as “do not find anatabine to be rewarding”. For the same compound, the “maximum level of activation” value at α7 nAChR channel was “also similar (and similar to ACh)”. The EC50 on α3/β4 nAChR channel (agonist assay) turned out to be 14.6 µM. In addition, the nicotine-maintained responding entry in series [2] is given as “significantly reduced”; in series [3] (nicotine 0.003 and 0.01 mg/kg/inj) it was “significantly reduced”. Further, the “effect on nicotine dose-effect curve” value is “flattened the nicotine dose-effect curve” in series [3]; “shifts the peak of the dose-effect curve to the right” in [5] (anatabine 0.32 mg/kg, data for two monkeys); “flattened the dose-effect curve” in [5] (anatabine 1.0 mg/kg). Further, in series [4], the “reversal of precipitated nicotine withdrawal” value is listed as “does not reverse precipitated nicotine withdrawal”. The “food-maintained responding (change with increasing anatabine doses)” value in [5] is on record as “no significant effects”; in series [5] (listed as anatabine) it was “not statistically significant”. In addition, the “decreases in nicotine-maintained responding versus baseline” value in [5] (anatabine doses of 1.8 and 3.2 mg/kg IM, P<0.005-0.02) is listed as “significantly different from baseline”. For the same compound, the “systematic behavioral assessments (sedation or agitation)” value in series [5] (following each treatment session) was “no evidence of sedation or agitation”. The values for the nicotine self-administration result in series [5] and in series [5] (listed as anatabine) were “dose-dependently reduced” and “dose-dependently decreased”, respectively.
As to `CN1CCCC1c1cccnc1` (single isomer, unassigned) [Nicotine, nicotine, reference compound], the “Nicotine Binding Constant” value in series [6] and in series [7] was 1.0 each time. Also, the agonist character entry at α7 nAChR channel is “full, potent agonists”; at α3/β4 nAChR channel (agonist assay) it was “full agonist”. For the same compound, the “maximum level of activation” value on α7 nAChR channel is reported as “also similar (and similar to ACh)”. Also, the “maximal response of the channel compared with ACh” value at α3/β4 nAChR channel (agonist assay) is reported as “approached that of ACh”. For the same compound, the “food-maintained responding with increasing doses of nicotine” value in series [5] (nicotine 0.001-0.1 mg/kg/inj) is “did not change”. Besides, the “peak of the nicotine dose-effect curve” value in [5] (nicotine 0.001-0.1 mg/kg/inj, 7 monkeys) came out at 0.0032 mg/kg/inj.
